The results in this text go back to US8283370B2, “Imidazolidinedione derivatives as antimalarial agents, preparation thereof, and methods of use” (The United States of America as Represented by the …, priority 2008, dated 2012).

Holding throughout (assay type): in vivo
For experiment [1], the system named is P. cynomolgi liver stage hypnozoites. Put plainly: Radical cure test in relapsed Rhesus monkeys. Here is the method: Monkeys were treated with chloroquine (10 mg/kg/day) by oral for 7 consecutive days and the test compounds by IM for 3 consecutive days after the parasitemia level reached 5,000 parasites/mm^3. Chloroquine (CQ) at 10 mg/kg/day×7 days eliminates the blood stage parasites, but not the liver stage hypnozoites. Compounds with antihypnozoite activity will delay the relapse or radically cure the infection. To evaluate the radical curative properties, daily blood samples were followed for 21 days, 3 times per week for 4 weeks, and then 2 times weekly until 100 days after the last day of test compound administration. Parasite clearance should occur in all animals treated with chloroquine. Relapse is expected in the control group. Relapse in the treated group indicates failure of the test compounds. […] Relapses of the control monkeys were treated with chloroquine once daily for 7-days and observed for a second relapse. Relapse in experimental animals and the second relapse of the control monkeys were treated with the standard 7-day oral CQ (chloroquine) and primaquine (1.78 mg base/kg). After standard treatment, blood smears were monitored daily for 4 consecutive days of negative results and 2 times weekly for 2 weeks.

Another experiment relates to P. berghei sporozoites. The experiment can be described thus: Causal prophylactic activity, exoerythrocytic (EE) mouse model, P. berghei sporozoites. The conditions noted are these: 3 days treated. Here is the method:
(§1) New compounds were assessed for their causal prophylactic activity in two different exoerythrocytic (EE) mouse models using sporozoites of either P. berghei or P. yoelii. The procedures have been previously described (see, for example, Q. Zhang et al., J. Med. Chem. 48 (20): 6472-6481 (2005)). Briefly, each compound was ground with a mortar and pestle and suspended in hydroxyethylcellulose and Tween 80 for compounds to be administered PO and those given SC were suspended in peanut oil. Each compound was prepared at different dose levels. Compounds were administered either PO or SC to mice once a day for three consecutive days, to mice on the day before, 4 hours before, and the day after being inoculated intraperitoneally with P. yoelii sporozoites or P. berghei sporozoites intravenously. Whole body weights were taken on Day 0 and Day 6 then approximately twice a week for 31 days. A blood film was taken on Day 5 and then approximately twice a week for 31 days. Mice losing greater than about 20% of their body weight were sacrificed. A compound was considered active if only low levels of parasites were found (less than about 10%) in blood films taken on Day 5 or any biweekly for 31 days. Mice alive on Day 31 with no parasites found in any blood films were considered protected.

A further experiment concerns P. yoelii sporozoites. The experiment can be described thus: Causal prophylactic activity, exoerythrocytic (EE) mouse model, P. yoelii sporozoites. As to conditions: for P. yoelli # Mice Protected/# Mice Used: 3 days treated; for Causal prophylactic protection in mice (comparison in words): Table 5, compared to control compound 3 or between P. yoelii and P. berghei. Here is the method:
as §1

The next experiment relates to P. cynomolgi sporozoites. Put plainly: Causal prophylactic test in P. cynomolgi sporozoites challenged Rhesus monkeys. The conditions noted are these: for Causal prophylactic activity in Rhesus test (in words): 30 mg/kg/day for 3 days by IM; for Patency (Days Post-innoculation): one value per monkey, 30 mg/kg 1 daily for 3 days, IM (days -1, 0, +1), 30 mg/kg. The procedure:
Among the new compounds prepared, representative compounds 5e, 6c, 7a and 7c were assessed for causal prophylactic and radical cure activities in Rhesus monkeys. To protect the Rhesus monkeys, a test compound must pass a mouse toxicity test at 300 mg/kg/day for 3 consecutive days by SC administration, and mice must not lose more than 5% body weight within 30 days after receiving the test compound.
The causal prophylactic and radical curative antimalarial activity of the new derivatives 5e, 6c, 7a and 7c were assessed in a P. cynomolgi sporozoites challenged Rhesus monkey model. Detailed procedure of sporozoites harvest and drug tests have been described previously (J. Guan et al., Bioorg. Med. Chem. 23, 699-704 (2005); Q. Zhang et al., J. Med. Chem. 48 (20): 6472-6481 (2005)) Briefly, monkeys were randomized to control groups and experimental groups. A donor monkey was inoculated intravenously with 1.3 mL freshly-thawed frozen infected red blood cells (DA310). When the donor monkey developed gametocytemia, mosquito feedings were conducted on days 13 and 14 after inoculation. The donor monkey was treated with intramuscular chloroquine hydrochloride (CQ) 10 mg/kg, once a day after the second mosquito feeding and continued for 7 days. On day 0 (beginning of assay), each of the monkeys was inoculated intravenously with 1-ml inoculum of suspension containing about 1.0×10^6 (one million) P. cynomolgi sporozoites harvested from Anopheles dirus mosquitoes' salivary glands previously fed on the donor monkey (See, for example, Corcoran, K D, et al. (1993) Am. J. Trop. Med. Hyg. 49:473 477, and Shanks, G D, et al. (2001) Clinical Infectious Diseases 33:1968 1974). All monkeys received treatment on days −1, 0 and 1. The control monkeys received dimethylsulfoxide (DMSO) and the experimental animals received testing compound intramusculary. After the assay, all monkeys were given standard malarial treatment. Specifically, seven-day primaquine (1.78 mg/kg) and chloroquine (10 mg/kg) were administered to treat all monkeys.

Where [2] appears, read: one value per monkey, 30 mg/kg 1 daily for 3 days IM with CQ 10 mg/kg x7 po.

Values joined by “and” are separate entries in the source; they are usually repeats but may differ in a detail not shown here. Equal entries are not always repeated.

`CCN(CC)CCCC(C)Nc1ccnc2cc(Cl)ccc12` (centres unmarked) [CQ, chloroquine, reference compound]: the “Relapse, Days Post-treatment” value in experiment [1] (one value per monkey, CQ 10 mg/kg x7 po alone (Drug 2 none)) is recorded as 9 days.
As to `CC(C)N1C(=O)C(=O)N=C1/N=C(\NC(=O)OC(C)(C)C)Nc1ccc(Cl)c(Cl)c1` [Compound 3, reference compound], the “P. berghei # Mice Protected/# Mice Used” value in the experiment with P. berghei sporozoites (Dose/day 40 mg/kg) is given as 2/10; in the experiment on P. berghei sporozoites (Dose/day 160 mg/kg), 4/10. For the same compound, the “P. yoelli # Mice Protected/# Mice Used” value in the experiment with P. yoelii sporozoites (Dose/day 10 mg/kg) is 3/5; in the experiment on P. yoelii sporozoites (Dose/day 40 mg/kg), 2/5; in the experiment with P. yoelii sporozoites (Dose/day 160 mg/kg), 4/5.
Regarding `CC(C)N1C(=O)C(=O)N=C1N=C(NOCc1ccccc1)Nc1ccc(Cl)c(Cl)c1` [Compound 5e], the “P. berghei # Mice Protected/# Mice Used” value in the experiment on P. berghei sporozoites (Dose/day 40 mg/kg) is 0/5. Further, the “P. berghei # Mice Protected/# Mice Used” value in the experiment on P. berghei sporozoites (Dose/day 160 mg/kg) was 0/5. The “Delayed relapse, Days Post-treatment” value in experiment [1] (setting [2]) was 35 days and 33 days. For the same compound, in the experiment with P. cynomolgi sporozoites, the “Causal prophylactic activity in Rhesus test (in words)” value (shortened to “Causal prophylactic activity”) is recorded as “about equal in causal prophylactic activity to 7c”; the “Patency (Days Post-innoculation)” value was 27 days and 29 days.
`CC(C)NC(=NC1=NC(=O)C(=O)N1C(C)C)Nc1ccc(Cl)c(Cl)c1` [Compound 6c]: the “P. berghei # Mice Protected/# Mice Used” value in the experiment with P. berghei sporozoites (Dose/day 40 mg/kg) is 0/5. In addition, the “P. berghei # Mice Protected/# Mice Used” value with P. berghei sporozoites (Dose/day 160 mg/kg) is recorded as 1/5. Besides, the “Delayed relapse, Days Post-treatment” value in experiment [1] (setting [2]) is 66 days and 91 days. Further, the “Radical curative efficacy (in words)” value in experiment [1] (test compound IM for 3 days with CQ po for 7 days) was “more active than 5e, 7a and 7c”. In the experiment with P. cynomolgi sporozoites, the “Causal prophylactic activity” value is “most potent causal prophylactic activity”; the “Patency (Days Post-innoculation)” value was 62 days and 94 days.
As for `CC(C)N1C(=O)C(=O)N=C1N=C(NCC(C)(C)C)Nc1ccc(Cl)c(Cl)c1` [Compound 6e], the “P. berghei # Mice Protected/# Mice Used” value with P. berghei sporozoites (Dose/day 40 mg/kg) was 0/5; in the experiment with P. berghei sporozoites (Dose/day 160 mg/kg) it was 1/5. The “P. yoelli # Mice Protected/# Mice Used” value in the experiment with P. yoelii sporozoites (Dose/day 10 mg/kg), with P. yoelii sporozoites (Dose/day 40 mg/kg) and in the experiment on P. yoelii sporozoites (Dose/day 160 mg/kg) was 5/5 in each case. Besides, the “Causal prophylactic protection in mice (comparison in words)” value with P. yoelii sporozoites is on record as “enhanced protection”.
For the compound `CC(C)N1C(=O)C(=O)N=C1N=C(Nc1ccccc1)Nc1ccc(Cl)c(Cl)c1` [Compound 6f], the “P. berghei # Mice Protected/# Mice Used” value in the experiment on P. berghei sporozoites (Dose/day 40 mg/kg) and in the experiment with P. berghei sporozoites (Dose/day 160 mg/kg) was 0/5 throughout. Besides, the “P. yoelli # Mice Protected/# Mice Used” value with P. yoelii sporozoites (Dose/day 10 mg/kg), in the experiment with P. yoelii sporozoites (Dose/day 40 mg/kg) and in the experiment on P. yoelii sporozoites (Dose/day 160 mg/kg) was 5/5 each time. The “Causal prophylactic protection in mice (comparison in words)” value in the experiment with P. yoelii sporozoites is on record as “enhanced protection”.
Turning to `CCC(CC)C(=O)NC(=NC1=NC(=O)C(=O)N1C(C)C)Nc1ccc(Cl)c(Cl)c1` [Compound 7a], in experiment [1] (30 mg/kg 1 daily for 3 days IM with CQ 10 mg/kg x7 po), the “Delayed relapse, days longer as compared with control animals” value came out at 7 days. The “Results (radical cure, in words)” value in experiment [1] (30 mg/kg 1 daily for 3 days IM with CQ 10 mg/kg x7 po, no relapse after 100 days = radically cured) is “One out of two monkeys treated with 7a was cured and Cure”. In addition, the “Delayed relapse, Days Post-treatment” value in experiment [1] (setting [2]) was 16 days. In addition, in the experiment with P. cynomolgi sporozoites, the “Causal prophylactic activity” value is listed as “weak causal prophylactic activity”; the “Patency (Days Post-innoculation)” value was 13 days and 17 days.
On to `CC(C)N1C(=O)C(=O)N=C1N=C(NC(=O)C(C)(C)C)Nc1ccc(Cl)c(Cl)c1` [Compound 7c], for which, in experiment [1] (40 mg/kg 1 daily for 3 days IM with CQ 10 mg/kg x7 po), the “Delayed relapse, days longer as compared with control animals” value was 20 days and 23 days. For the same compound, in experiment [1] (one value per monkey, 40 mg/kg 1 daily for 3 days IM with CQ 10 mg/kg x7 po), the “Delayed relapse, Days Post-treatment” value was 29 days and 32 days. In the experiment on P. cynomolgi sporozoites, the “Causal prophylactic activity” value is listed as “superior protective activity than that of 7a”; the “Patency (Days Post-innoculation)” value is 21 days and 40 days.
